Laboratory results as given in patent US20260042764A1, “COMPOSITIONS AND METHODS FOR INHIBITION OF KRAS” (TheRas, Inc., priority 2022, published 2026).
pIC50: −log10 of the molar value.

Legend:
[1] = biological target: T1, Avi-KRAS G12D (1-169) GppNHp/RAF1 RBD-3xFLAG (52-151) (Homo sapiens, UniProt P01116, G12D); assay: Raf1-KRAS G12D-GppNHP disruption HTRF assay (Biological Example 1); assay type: binding; details: KRAS G12D, GppNHp-loaded; Table 11
T1 construct: Avi-KRAS G12D (1-169)
Procedure, shortened: (§1)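 Protein mix, 1 h RT, 700 rpm; reagent mix, 1 h RT, 700 rpm; HTRF read. Buffer Tris pH 7.5/NaCl/MgCl2/BSA/Tween, 10% DMSO. Output % activity, DMSO = 100%.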

[2] = biological target: T2, Avi-KRAS G12R (1-169) GppNHp/RAF1 RBD-3xFLAG (52-151) (Homo sapiens, UniProt P01116, G12R); assay: Raf1-KRAS G12R-GppNHP disruption HTRF assay (Biological Example 1); assay type: binding; details: KRAS G12R, GppNHp-loaded; Table 11
T2 construct: Avi-KRAS G12R (1-169)
Procedure, shortened: as §1

[3] = biological target: T3, Avi-KRAS G12V (1-169) GppNHp/RAF1 RBD-3xFLAG (52-151) (Homo sapiens, UniProt P01116, G12V); assay: Raf1-KRAS G12V-GppNHP disruption HTRF assay (Biological Example 1); assay type: binding; details: KRAS G12V, GppNHp-loaded; Table 11
T3 construct: Avi-KRAS G12V (1-169)
Procedure, shortened: as §1

[4] = biological target: T4, Avi-KRAS WT (1-169) GppNHp/RAF1 RBD-3xFLAG (52-151) (Homo sapiens, UniProt P01116); assay: Raf1-KRAS WT-GppNHP disruption HTRF assay (Biological Example 1); assay type: binding; details: KRAS WT, GppNHp-loaded; Table 11
T4 construct: Avi-KRAS WT (1-169)
Procedure, shortened: as §1

[5] = system: GP2d cells (KRAS G12D); assay: Cell-based pERK HTRF assay in GP2d cell (Biological Example 2); details: GP2d (KRAS G12D) cells, pERK HTRF
Procedure, shortened: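 GP2d (KRAS G12D) cells were plated in DMEM/10% FBS and treated the next day for 60 min with compounds. Dosing used 9-point half-log series starting at 1 μM or 100 nM in 0.25% DMSO. Lysates were read by HTRF pERK (d2/Eu cryptate antibodies) after 4–24 h at room temperature, with excitation at 320 nm and emission at 615 nm.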

[6] = system: SW620 cells (KRAS G12V); assay: Cell-based pERK HTRF assay in SW620 cell (Biological Example 4); details: pERK HTRF
Procedure, shortened: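 SW620 (KRAS G12V) cells seeded at 3×10^4/well in RPMI, 10% FBS, then treated next day for 4 h with a 9-point half-log series from 1 μM top (0.25% DMSO). Lysates analyzed for pERK by HTRF (Eu cryptate/d2 antibodies, 4–24 h at room temperature), excitation 320 nm, emission 615 nm.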

[7] = Homo sapiens, SW-620, SW620 (KRAS G12V) cells

T4 sequence (P01116 1-169 isoform P01116-2): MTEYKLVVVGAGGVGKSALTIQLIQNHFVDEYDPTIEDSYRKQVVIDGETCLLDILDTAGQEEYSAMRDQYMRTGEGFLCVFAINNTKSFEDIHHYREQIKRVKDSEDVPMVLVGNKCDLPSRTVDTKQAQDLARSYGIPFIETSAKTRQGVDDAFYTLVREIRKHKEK
T2 sequence (P01116 1-169 isoform P01116-2 G12R): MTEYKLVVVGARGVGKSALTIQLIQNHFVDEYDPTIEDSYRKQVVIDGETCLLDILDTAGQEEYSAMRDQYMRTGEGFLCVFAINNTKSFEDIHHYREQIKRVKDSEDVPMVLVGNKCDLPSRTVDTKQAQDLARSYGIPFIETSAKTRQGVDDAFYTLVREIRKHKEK
T3 sequence (P01116 1-169 isoform P01116-2 G12V): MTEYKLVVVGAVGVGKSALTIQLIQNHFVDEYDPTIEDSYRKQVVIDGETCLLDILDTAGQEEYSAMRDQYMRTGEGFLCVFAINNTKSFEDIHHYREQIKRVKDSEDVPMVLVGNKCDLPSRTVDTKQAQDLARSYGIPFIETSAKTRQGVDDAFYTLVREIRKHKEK
T1 sequence (P01116 1-169 isoform P01116-2 G12D): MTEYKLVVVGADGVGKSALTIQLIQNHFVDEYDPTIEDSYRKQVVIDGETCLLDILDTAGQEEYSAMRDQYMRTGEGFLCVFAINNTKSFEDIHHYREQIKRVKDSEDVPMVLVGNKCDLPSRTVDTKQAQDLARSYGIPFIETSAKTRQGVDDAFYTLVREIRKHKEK

Row | Compound | pIC50 [1] | pIC50 [2] | pIC50 [3] | pIC50 [4] | pIC50 ([5]; GP2d) | pIC50 [6, 7] | pIC50 [5] | pIC50 ([6]; SW620 (KRAS G12V) cells)
1 | N#Cc1c(N)sc2c(F)ccc(-c3c(C(F)(F)F)cc4cnc(OC[C@@]56CCCN5C[C@H](F)C6)nc4c3F)c12 [Compound 213, 2-amino-7-fluoro-4-[8-fluoro-2-[[(2R,8S)-2-fluoro-1,2,3,5,6,7-hexahydropyrrolizin-8-yl]methoxy]-6-(trifluoromethyl)quinazolin-7-yl]benzothiophene-3-carbonitrile] | 6.00 to 7.00 | 6.00 to 7.00 | 6.00 to 7.00 | 6.00 to 7.00 | > 7.00 | > 7.00 | – | –
2 | N#CCC[C@H]1CCN(c2nc(OC[C@@]34CCCN3C[C@H](F)C4)nc3c(F)c(-c4ccc(F)c5sc(N)c(C#N)c45)c(C(F)(F)F)cc23)C1 [Compound 214] | 5.00 to 6.00 | 5.00 to 6.00 | 5.00 to 6.00 | 5.00 to 6.00 | 6.00 to 7.00 | 6.00 to 7.00 | – | –
3 | N#Cc1c(N)sc2c(F)ccc(-c3c(C(F)(F)F)cc4c(N5CC(O)C5)nc(OC[C@@]56CCCN5C[C@H](F)C6)nc4c3F)c12 [Compound 215] | 6.00 to 7.00 | 6.00 to 7.00 | 6.00 to 7.00 | 6.00 to 7.00 | > 7.00 | 6.00 to 7.00 | – | –
4 | CN(C[C@H](F)CO)c1nc(OC[C@@]23CCCN2C[C@H](F)C3)nc2c(F)c(-c3ccc(F)c4sc(N)c(C#N)c34)c(C(F)(F)F)cc12 [Compound 216] | 6.00 to 7.00 | 6.00 to 7.00 | 6.00 to 7.00 | 6.00 to 7.00 | > 7.00 | > 7.00 | – | –
5 | CN(CCS(C)(=O)=O)c1nc(OC[C@@]23CCCN2C[C@H](F)C3)nc2c(F)c(-c3ccc(F)c4sc(N)c(C#N)c34)c(C(F)(F)F)cc12 [Compound 217] | 6.00 to 7.00 | 6.00 to 7.00 | 6.00 to 7.00 | 6.00 to 7.00 | > 7.00 | > 7.00 | – | –
6 | CN(C[C@@H](F)CO)c1nc(OC[C@@]23CCCN2C[C@H](F)C3)nc2c(F)c(-c3ccc(F)c4sc(N)c(C#N)c34)c(C(F)(F)F)cc12 [Compound 218] | 6.00 to 7.00 | 6.00 to 7.00 | 6.00 to 7.00 | 6.00 to 7.00 | > 7.00 | > 7.00 | – | –
7 | N#Cc1c(N)sc2c(F)ccc(-c3c(C(F)(F)F)cc4c(N5CC(F)C5)nc(OC[C@@]56CCCN5C[C@H](F)C6)nc4c3F)c12 [Compound 222] | 6.00 to 7.00 | 6.00 to 7.00 | 6.00 to 7.00 | 6.00 to 7.00 | > 7.00 | > 7.00 | – | –
8 | CS(=O)(=O)C1CN(c2nc(OC[C@@]34CCCN3C[C@H](F)C4)nc3c(F)c(-c4ccc(F)c5sc(N)c(C#N)c45)c(C(F)(F)F)cc23)C1 [Compound 223] | 6.00 to 7.00 | 5.00 to 6.00 | 5.00 to 6.00 | 6.00 to 7.00 | 6.00 to 7.00 | 6.00 to 7.00 | – | –
9 | C[C@@]1(O)CCCN(c2nc(OC[C@@]34CCCN3C[C@H](F)C4)nc3c(F)c(-c4ccc(F)c5sc(N)c(C#N)c45)c(C(F)(F)F)cc23)C1 [Compound 224] | 6.00 to 7.00 | 6.00 to 7.00 | 6.00 to 7.00 | 6.00 to 7.00 | > 7.00 | > 7.00 | – | –
10 | CC(=O)N1CC[C@H](N(C)c2nc(OC[C@@H]3C[C@@H](F)CN3C)nc3c(F)c(-c4ccc(F)c5sc(N)c(C#N)c45)c(C(F)(F)F)cc23)[C@@H]1C [Compound 226] | < 5.00 | < 5.00 | < 5.00 | < 5.00 | < 6.00 | < 6.00 | – | –
11 | CC(=O)N1CC[C@H](N(C)c2nc(OC[C@@H]3CC4(CC4)CN3C)nc3c(F)c(-c4ccc(F)c5sc(N)c(C#N)c45)c(C(F)(F)F)cc23)[C@@H]1C [Compound 227] | 5.00 to 6.00 | < 5.00 | < 5.00 | < 5.00 | 6.00 to 7.00 | 6.00 to 7.00 | – | –
12 | CC1(O)CCN(c2nc(OC[C@@]34CCCN3C[C@H](F)C4)nc3c(F)c(-c4ccc(F)c5sc(N)c(C#N)c45)c(C(F)(F)F)cc23)CC1 [Compound 228] | 6.00 to 7.00 | 5.00 to 6.00 | 5.00 to 6.00 | 6.00 to 7.00 | 6.00 to 7.00 | 6.00 to 7.00 | – | –
13 | CC(=O)N1CCN(c2nc(OC[C@@]34CCCN3C[C@H](F)C4)nc3c(F)c(-c4ccc(F)c5sc(N)c(C#N)c45)c(C(F)(F)F)cc23)C[C@H]1C [Compound 229] | 6.00 to 7.00 | 5.00 to 6.00 | 5.00 to 6.00 | 5.00 to 6.00 | > 7.00 | > 7.00 | – | –
14 | CC(=O)N1CCN(c2nc(OC[C@@]34CCCN3C[C@H](F)C4)nc3c(F)c(-c4ccc(F)c5sc(N)c(C#N)c45)c(C(F)(F)F)cc23)[C@@H](C)C1 [Compound 230] | 6.00 to 7.00 | 5.00 to 6.00 | 5.00 to 6.00 | 6.00 to 7.00 | > 7.00 | > 7.00 | – | –
15 | N#Cc1c(N)sc2c(F)ccc(-c3c(C(F)(F)F)cc4c(N5CCCC6(CC(O)C6)C5)nc(OC[C@@]56CCCN5C[C@H](F)C6)nc4c3F)c12 (stereo partly drawn) [Compound 231] | 5.00 to 6.00 | 5.00 to 6.00 | < 5.00 | 5.00 to 6.00 | – | – | 6.00 to 7.00 | 6.00 to 7.00
16 | N#Cc1c(N)sc2c(F)ccc(-c3c(C(F)(F)F)cc4c(N5CCn6nccc6C5)nc(OC[C@@]56CCCN5C[C@H](F)C6)nc4c3F)c12 [Compound 233] | 6.00 to 7.00 | 6.00 to 7.00 | 5.00 to 6.00 | 6.00 to 7.00 | – | – | > 7.00 | > 7.00
17 | C[C@H]1CCN1c1nc(OC[C@@]23CCCN2C[C@H](F)C3)nc2c(F)c(-c3ccc(F)c4sc(N)c(C#N)c34)c(C(F)(F)F)cc12 [Compound 235] | 6.00 to 7.00 | 6.00 to 7.00 | 6.00 to 7.00 | 6.00 to 7.00 | > 7.00 | > 7.00 | – | –
18 | N#Cc1c(N)sc2c(F)ccc(-c3c(C(F)(F)F)cc4c(N5CCC[C@H](O)C5)nc(OC[C@@]56CCCN5C[C@H](F)C6)nc4c3F)c12 [Compound 236] | 6.00 to 7.00 | 6.00 to 7.00 | 6.00 to 7.00 | 6.00 to 7.00 | > 7.00 | > 7.00 | – | –
19 | CC(=O)N1C[C@@H](F)[C@@H](N(C)c2nc(OC[C@@]34CCCN3C[C@H](F)C4)nc3c(F)c(-c4ccc(F)c5sc(N)c(C#N)c45)c(C(F)(F)F)cc23)C1 [Compound 237] | 6.00 to 7.00 | 6.00 to 7.00 | 6.00 to 7.00 | 6.00 to 7.00 | > 7.00 | > 7.00 | – | –
20 | CO[C@@H]1C[C@@H](COc2nc(N(C)[C@H]3CCN(C(C)=O)[C@H]3C)c3cc(C(F)(F)F)c(-c4ccc(F)c5sc(N)c(C#N)c45)c(F)c3n2)N(C)C1 [Compound 238] | < 5.00 | < 5.00 | < 5.00 | < 5.00 | < 6.00 | < 6.00 | – | –
21 | CC(=O)N1CC[C@H](N(C)c2nc(OC[C@@H]3CCCN3C)nc3c(F)c(-c4ccc(F)c5sc(N)c(C#N)c45)c(C(F)(F)F)cc23)[C@@H]1C [Compound 239] | < 5.00 | < 5.00 | < 5.00 | < 5.00 | < 6.00 | < 6.00 | – | –
22 | C[C@H]1[C@@H](N(C)c2nc(OC[C@@]34CCCN3C[C@H](F)C4)nc3c(F)c(-c4ccc(F)c5sc(N)c(C#N)c45)c(C(F)(F)F)cc23)CCN1C(=O)CO [Compound 240] | 5.00 to 6.00 | 5.00 to 6.00 | 5.00 to 6.00 | 5.00 to 6.00 | 6.00 to 7.00 | < 6.00 | – | –
23 | C[C@]1(O)CCCN(c2nc(OC[C@@]34CCCN3C[C@H](F)C4)nc3c(F)c(-c4ccc(F)c5sc(N)c(C#N)c45)c(C(F)(F)F)cc23)C1 [Compound 241] | 6.00 to 7.00 | 6.00 to 7.00 | 6.00 to 7.00 | 6.00 to 7.00 | > 7.00 | > 7.00 | – | –
24 | C[C@]1(O)CCN(c2nc(OC[C@@]34CCCN3C[C@H](F)C4)nc3c(F)c(-c4ccc(F)c5sc(N)c(C#N)c45)c(C(F)(F)F)cc23)C1 [Compound 242] | 6.00 to 7.00 | 6.00 to 7.00 | 6.00 to 7.00 | 6.00 to 7.00 | > 7.00 | 6.00 to 7.00 | – | –
25 | N#Cc1c(N)sc2c(F)ccc(-c3c(C(F)(F)F)cc4c(N5CCn6nncc6C5)nc(OC[C@@]56CCCN5C[C@H](F)C6)nc4c3F)c12 [Compound 243] | 6.00 to 7.00 | 6.00 to 7.00 | 6.00 to 7.00 | 6.00 to 7.00 | > 7.00 | > 7.00 | – | –
